Experimental findings from patent publication US20140121240A1, “NOVEL PHARMACEUTICAL COMPOSITION” (MARUHO CO., LTD., priority 2011, published 2014) are described below.

Marks after values point to notes of the source that are not given here.

In series [1] the test system is histamine-induced scratching behavior. Description: Antipruritic activity in histamine-induced scratching model, dose response (Experiment 3 (1)). Format: in vivo, mouse. As to the method: (1) [Antipruritic Activity of Test Compound in Histamine-Induced Scratching Model]
After topical administration of a solution (50 μL) of test compound (0.3 to 3% w/v solution of Compound A in acetone, or 0.03 to 0.3% w/v solution of cipamfylline in acetone), or a vehicle (acetone; 50 μL) onto right dorsal neck of ICR female mice similarly pre-treated as described in Experiment 1, these animals were placed into a testing apparatus (MicroAct). After one hour of the administration of said test compound solution or vehicle, a solution (50 μL) of histamine in saline (300 nmol/50 μL) or saline (50 μL; control group) was intradermally administered to right dorsal neck of each mouse. Immediately after the administration, scratching behavior (counts of scratching) was measured for 30 minutes by the testing apparatus (MicroAct).

The subject of series [2] is spontaneous locomotor activity. Description: Effect on spontaneous locomotor activity (Experiment 3 (2)). The series is classed as in vivo, mouse. The note with it: for Spontaneous locomotor activity (Mean): measured from 1 h after administration. The procedure: (2) [Effect of Test Compound on Spontaneous Locomotor Activity] The same solution (50 μL) of test compound or a vehicle (50 μL) as described in the above-mentioned (1) was administered onto right dorsal neck of ICR female mice similarly pre-treated as described in Experiment 1. After one hour of the administration of the test compound solution or vehicle, these animals were placed into an apparatus for measuring spontaneous locomotor activity (SCANET, Melquest Ltd.), and their locomotor activity was measured for 30 minutes.

The test system of series [3] is histamine-induced scratching behavior. Description: Antipruritic effect in histamine-induced scratching model (Experiment 2). Format: in vivo, mouse. The settings on record: for Antipruritic activity (ratio of inhibition rate on scratching behavior to that of Compound A): 3% w/v in acetone 50 μL topical 1 h before histamine 300 nmol/50 μL, ICR female mice, counts for 30 minutes; for antipruritic effect in histamine-induced scratching model, result in words: 3% w/v topical, histamine 300 nmol/50 μL. As to the method:
[Antipruritic Effect of Test Compound in Histamine-Induced Scratching Model]
After topical administration of a 3% w/v solution of a test compound or a reference compound as described in the following Table 6 in acetone (50 μL) or a vehicle (acetone; 50 μL) onto right dorsal neck of ICR female mice similarly pre-treated as described in Experiment 1, these animals were placed into a testing apparatus (MicroAct). After one hour of the administration of said compound solution or vehicle, a solution (50 μL) of histamine in saline (300 nmol/50 μL) or saline (50 μL) was intradermally administered to right dorsal neck of each mouse. Immediately after the administration, scratching behavior (counts of scratching) was measured for 30 minutes by MicroAct.
Inhibition rate on scratching behavior of each test compound was evaluated in terms of the following formula based on the counts of scratching in the test group in which each test compound solution was administered followed by administration of a histamine solution in saline (counts of scratching in compound-treated group), and the counts of scratching in the test group in which a vehicle (acetone) was administered followed by administration of a histamine solution in saline (counts of scratching in vehicle-treated group).
(§1) Ratio of inhibition rate on scratching behavior of each test compound to that of Compound A was calculated as antipruritic activity (%). For reference, PDE4 inhibitory activity of each compound (IC50) which was measured by a conventional manner is also shown in such Table.

The subject of another series is PDE4. Kind of series: PDE4 inhibitory activity measured by a conventional manner. The series is classed as biochemical. The procedure: as §1
Series [4] deals with oxazolone-induced inflammatory reactions of right ear auricle. Kind of series: Chronic oxazolone-induced dermatitis model: ear auricle thickness (Experiment 4). The series is classed as in vivo, mouse. The settings on record: Compound A 1%, Tacrolimus 0.1%, Dexamethasone 0.01% w/v in 0.25% oxazolone. The procedure:
(§2) [Antipruritic Effect of Test Compound in Chronic Oxazolone-Induced Dermatitis Model]
(§3) A magnet for measurement was implanted into an instep part of right hindlimb of BALB/c male mouse (fed for one week from five-week old; Charles River Laboratories, Japan Inc.) under anesthesia, and on the same day, sensitization was carried out by topically administering 0.5% w/v solution (10 μL) of oxazolone in acetone respectively onto the both sides of right ear auricle of the animal (sensitization day). On each point of the 7th, 9th, 11th, 14th and 16th day reckoned from the day after the sensitization (1st day), each mouse was challenged by topical administration of a 10 μL solution of test compound [acetone (vehicle-treated group), 0.25% w/v solution of oxazolone in acetone (oxazolone-treated group), or a test compound solubilized in 0.25% w/v oxazolone solution in acetone (test compound-treated group)] onto the both sides of right ear auricle of the animal to produce inflammatory reactions. Immediately after the administration, scratching behavior (counts of scratching) was measured for two hours by MicroAct. Thickness of right ear auricle of each mouse was measured by a thickness gauge before and 24 hours after the topical administration of each test compound solution. The percentage described in the Table means “% w/v”.

Series [5] relates to oxazolone-induced scratching behavior. Description: Chronic oxazolone-induced dermatitis model: scratching behavior (Experiment 4). The note with it: Compound A 1%, Tacrolimus 0.1%, Dexamethasone 0.01% w/v in 0.25% oxazolone. The series is classed as in vivo, mouse. As to the method:
as §2, §3

[6] abbreviates: sensitization day, BALB/c male mouse.

In the case of `Nc1nc2c([nH]1)c(=O)n(CC1CC1)c(=O)n2CC1CC1` [Cipamfylline, cipamfylline], the results for the “Counts of scratching (Mean)” value in series [1] (0.03% w/v in acetone 50 μL topical 1 h before histamine 300 nmol/50 μL), in series [1] (0.1% w/v in acetone 50 μL topical 1 h before histamine 300 nmol/50 μL) and in series [1] (0.3% w/v in acetone 50 μL topical 1 h before histamine 300 nmol/50 μL) were 579 beats/30 min, 369 beats/30 min and 130 beats/30 min, respectively. Besides, the “Spontaneous locomotor activity (Mean)” value in series [2] (0.03% w/v in acetone 50 μL topical) is on record as 6760 counts/30 min; in series [2] (0.1% w/v in acetone 50 μL topical), 5308 counts/30 min; in series [2] (0.3% w/v in acetone 50 μL topical), 4924 counts/30 min. Further, the “spontaneous locomotor activity lowering effect at a dose producing antipruritic effect, result in words” value in series [2] (Compound A 3% w/v, cipamfylline 0.3% w/v) is given as “showed a significant spontaneous locomotor activity lowering effect”.

Regarding `COc1cc2cc(CO)c(CO)c(-c3ccnc(-n4ncc5ccccc5c4=O)c3)c2cc1OC` [Compound B], in series [3], the “Antipruritic activity (ratio of inhibition rate on scratching behavior to that of Compound A)” value stood at 154% and the “antipruritic effect in histamine-induced scratching model, result in words” value is “remarkable antipruritic effect”. It took 1 nM to reach half-maximal inhibition in the series with PDE4 (IC50).

With `COc1cc2cc(CO)c(CO)c(-c3ccnc(-n4c(=O)cc(OC)c5ccccc54)c3)c2cc1OC` [Compound C], in series [3], the “Antipruritic activity (ratio of inhibition rate on scratching behavior to that of Compound A)” value stood at 116% and the “antipruritic effect in histamine-induced scratching model, result in words” value is “remarkable antipruritic effect”. This compound also showed an IC50 with PDE4 of 2 nM.

For `COc1cc2cc(CO)c(CO)c(-c3ccnc(-n4c(=O)cc(O)c5ccccc54)c3)c2cc1OC` [Compound D], in series [3], the “Antipruritic activity (ratio of inhibition rate on scratching behavior to that of Compound A)” value was 80% and the “antipruritic effect in histamine-induced scratching model, result in words” value is recorded as “remarkable antipruritic effect”. In the series on PDE4, the IC50 turned out to be 2 nM.

For the compound `C[C@@H]1C[C@H]2[C@@H]3CCC4=CC(=O)C=C[C@]4(C)[C@@]3(F)[C@@H](O)C[C@]2(C)[C@@]1(O)C(=O)CO` [Dexamethasone], the “Ear auricle thickness (Mean)” value is on record as 0.35 mm in series [4] (7th day); 0.46** mm in series [4] (8th day); 0.40** mm in series [4] (9th day); 0.45** mm in series [4] (10th day); 0.43** mm in series [4] (11th day); 0.54** mm in series [4] (12th day). In addition, the “Ear auricle thickness (Mean)” value in series [4] (14th day) is 0.49** mm; in series [4] (15th day), 0.55** mm; in series [4] (16th day), 0.54** mm; in series [4] (17th day), 0.64** mm; in series [4] (setting [6]), 0.27 mm. In addition, the “Counts of scratching (Mean ± standard error)” value in series [5] (7th day, BALB/c male mouse) is recorded as 1663 ± 144 (*) beats/2 hr; in series [5] (9th day) it was 1845 ± 442 beats/2 hr; in series [5] (11th day), 1274 ± 296 beats/2 hr; in series [5] (14th day) it was 1791 ± 354 beats/2 hr; in series [5] (16th day) it was 2211 ± 430 beats/2 hr.

Take `COc1cc2cc(CO)c(CO)c(-c3ccnc(-n4ccc5c(CCc6cccnc6)cccc5c4=O)c3)c2cc1OC` [Reference compound 3]: in series [3], the “Antipruritic activity (ratio of inhibition rate on scratching behavior to that of Compound A)” value was −36% and the “antipruritic effect in histamine-induced scratching model, result in words” value is reported as “very weak or was not observed”. Moreover, in the series with PDE4, the midpoint of inhibition, the IC50, lay at 0.1 nM.

As for `C=CC[C@@H]1/C=C(\C)C[C@H](C)C[C@H](OC)[C@H]2O[C@@](O)(C(=O)C(=O)N3CCCC[C@H]3C(=O)O[C@H](/C(C)=C/[C@@H]3CC[C@@H](O)[C@H](OC)C3)[C@H](C)[C@@H](O)CC1=O)[C@H](C)C[C@@H]2OC` [Tacrolimus], the “Ear auricle thickness (Mean)” value in series [4] (7th day) was 0.35 mm; in series [4] (8th day) it was 0.58 mm; in series [4] (9th day), 0.41** mm; in series [4] (10th day), 0.49** mm; in series [4] (11th day) it was 0.49** mm; in series [4] (12th day), 0.57** mm. Besides, the “Ear auricle thickness (Mean)” value is recorded as 0.52** mm in series [4] (14th day); 0.73** mm in series [4] (15th day); 0.65** mm in series [4] (16th day); 0.71** mm in series [4] (17th day); 0.27 mm in series [4] (setting [6]). In addition, the “Counts of scratching (Mean ± standard error)” value in series [5] (7th day, BALB/c male mouse) is reported as 1130 ± 135 (**) beats/2 hr; in series [5] (9th day), 1655 ± 231 beats/2 hr; in series [5] (11th day), 990 ± 148 beats/2 hr; in series [5] (14th day), 1023 ± 148 (**) beats/2 hr; in series [5] (16th day) it was 2164 ± 324 beats/2 hr.
